Common to all, as to format: cell-based
In data set [1] the test system is Escherichia coli (ATCC 25922). Kind of data set: MIC, antimicrobial activity (microtitrate plate, absorbance 620 nm). The conditions noted are these: Gram negative bacterium; 6 hours at 37° C. From the text: (§1) The present inventors measured MIC, which is the minimum concentration of not divided bacterial cell, in order to compare the antimicrobial activity of the peptide prepared by the method of <experimental example 1>.
(§2) More specifically, the present inventors used Escherichia coli, Pseudomonas aeruginosa, Proteus vulgaris, Salmonella typhimurium as a Gram negative bacterium and used Staphylococcus aureus, Listeria monocytogenes, Staphylococcus epidermidis, Bacillus subtilis as a Gram positive bacterium. In addition, Escherichia coli (ATCC 25922), Listeria monocytogenes (ATCC 19115), and Staphylococcus aureus (ATCC 25923) were provided by “American Type Culture Collection” and Bacillus subtilis (KCTC 1918), […] (KCTC 3096), Pseudomonas aeruginosa (KCTC 1637) and Proteus vulgaris (KCTC 2433) were provided by “Korean Collection for Type Cultures”. After culturing each strain by up to mid-log phase in LB medium (1% Bacto tryptone, 0.5% extraction of Bacto yeast, 1% sodium chloride; Sigma, USA) and diluting it by the bacterial cell concentration of 1×10^4 cell/100 μl with 1% Bacto pepton medium (Difco, USA), they inoculated the strain to Microtitrate Plate (Nunc, USA). The present inventors added both the peptide of the present invention (experimental group 1 and 2) synthesized in the <experimental example 1> and maternal peptide(control group) into the plate after diluting separately by 1/2 times from 25 μM/well, and cultured them for 6 hours at 37° C. In addition, they measured absorbance under 620 nm of wavelength using Microtitrate Plate reader (Merck Elisa reader, Germany) and determined the MIC value of each strain, after then they described the final result in the following Table 2.

The test system of data set [2] is Listeria monocytogenes (ATCC 19115). Described as above. The conditions noted are these: Gram positive bacterium; 6 hours at 37° C.
Excerpt: as §1, §2

Data set [3] relates to Proteus vulgaris (KCTC 2433). The data set is described as above. The settings on record: Gram negative bacterium; 6 hours at 37° C.
Excerpt: as §1, §2

The subject of data set [4] is Pseudomonas aeruginosa (KCTC 1637). The description is as above. The conditions noted are these: Gram negative bacterium; 6 hours at 37° C.
Excerpt: as §1, §2

The subject of a further data set is Salmonella typhimurium. The data set is described as above. The conditions noted are these: Gram negative bacterium; 6 hours at 37° C.
Excerpt: as §1, §2

Data set [5] concerns Staphylococcus aureus (ATCC 25923). The data set is described as above. The settings on record: Gram positive bacterium; 6 hours at 37° C.
Excerpt: as §1, §2

For data set [6], the system named is Staphylococcus epidermidis. Described as above. The conditions noted are these: Gram positive bacterium; 6 hours at 37° C.
Excerpt: as §1, §2

Data set [7] relates to Bacillus subtilis (KCTC 1918). The settings on record: Gram positive bacterium; 6 hours at 37° C.
Excerpt: as §1, §2

The next data set has as its system human erythrocyte. Kind of data set: Erythrocyte hemolytic activity. The settings on record: for hemolytic activity (result in words): human erythrocyte, by the concentration of 200 μM; for % Hemolysis: 8% human erythrocyte in PBS pH 7.0, 1 hour, 1% triton X-100 = 100%. The method, then:
Firstly, the present inventors diluted human erythrocyte with phosphate buffer (PBS, pH 7.0) to be a 8% concentration and then, they diluted each described peptide comprising the amino acid sequence of SEQ. ID. NO: 1 to 3 in the Table 1 continually at the 1/2 concentration starting from 200 μM and make them reacted for 1 hour at 37. After then, the present inventors measured the amount of hemoglobin included in the supernatant obtained by centrifugating it with 1,000 g and the absorbance under the 414 nm of wavelength of the supernatant. In order to investigate relative level a comparative study of cytotoxicity, they measured the absorbance of supernatant with adding 1% triton X-100 (sigma, USA) to the human erythrocyte cell. Making the cytotoxicity of 1% triton X-100 to become a 100%, the present inventors calculated hemolysis of the peptides (experimental group 1 and 2) and maternal peptides (control group) of the present invention according to the following mathematical formula.
In the mathematical formula, absorbance A means the absorbance of the peptide solution under the 414 nm of wavelength, absorbance B means the absorbance of PBS under the 414 nm of wavelength and absorbance C means the absorbance of 1% triton X-100 under the 414 nm of wavelength.

Another data set deals with HaCaT cell line. Kind of data set: Cytotoxicity in the normal cell line (MTT). The method, then:
(§3) In order to confirm the cytotoxicity in the normal cell line, which was prepared by the <experimental example 1>, the present inventors measured the cytotoxicity using HaCaT cell line (Dr. N E. Fusenig, Heidelberg, Germany) and NIH3T3 cell line (ATCC(CRL-1658™)).
(§4) Specifically, they inject HaCaT cell line and NIH3T3 cell line, which were cultured in DMEM badge including 10% FBS (Fetal Bovine Serum), into 96-well plate with 3×10^3 each and cultured them for 24 hours, after then, they treated the peptides prepared by the <experimental example> to the HaCaT cell line and NIH3T3 cell line according to the concentration respectively and reacted them in the 5% CO2 incubator for 24 hours. After culturing, they put 20 ul of MTT (Thiazolyl Blue Tetrazolium Bromide) solution (5 mg/ml in PBS), into each well and reacted them four hours. And they removed supernatant and melted MTT crystal prepared by adding 200 ul of DMSO, and then they studied the result at 560 nm.

The next data set concerns NIH3T3 cell line. Kind of data set: Cytotoxicity in the normal cell line (MTT). On the procedure: as §3, §4
Setting [8] is: NIH3T3 cell line, 24 hours, MTT.

“Also recorded” adds a separate entry of the source. Like-named read-outs stand apart in the source and are kept apart here. Where no end group is shown, it is not given here.

As to “AKRLKKLAKKIWKWK-NH2 [NT3-F1AF8A-A2, AKRLKKLAKKIWKWK-NH2]”, the “MIC Escherichia coli” value in data set [1] worked out at 4 µM. Also, the “MIC Listeria monocytogenes” value in [2] was 2 µM. Also, the “MIC Proteus vulgaris” value in data set [3] was in the range of 2 to 4 µM. For the same substance, the “MIC Pseudomonas aeruginosa” value in data set [4] is 2 µM. Further, the “MIC Salmonella typhimurium” value in the data set on Salmonella typhimurium is 1 to 2 µM. The “MIC Staphylococcus aureus” value in data set [5] stood at 4 µM. In addition, the “MIC Staphylococcus epidermidis” value in data set [6] lay in the range of 2 to 4 µM. Besides, the “MIC Bacillus subtilis” value in data set [7] turned out to be 2 µM. In the data set with human erythrocyte, the “hemolytic activity (result in words)” value is listed as “no hemolytic activity”. Also, the “% Hemolysis” value with human erythrocyte (peptide 3.13 μM), with human erythrocyte (peptide 6.25 μM), in the data set on human erythrocyte (peptide 12.5 μM), with human erythrocyte (peptide 25 μM), in the data set on human erythrocyte (peptide 50 μM) and in the data set with human erythrocyte (peptide 100 μM) was 0% each time. Also, the “% Hemolysis” value with human erythrocyte (peptide 200 μM) came out at 0%. Besides, the “cytotoxicity (result in words, FIG. 1)” value in the data set with HaCaT cell line is “little cytotoxicity”. In the data set on NIH3T3 cell line, the “cytotoxicity (result in words, FIG. 2)” value is “little cytotoxicity”.
As for “AKRLKKLAKKIWNWK-NH2 [NT3-F1AF8A, AKRLKKLAKKIWNWK-NH2]”, in data set [1], the “MIC Escherichia coli” value was 16 to 32 µM. Further, the “MIC Listeria monocytogenes” value in data set [2] was determined as 2 µM. Further, the “MIC Proteus vulgaris” value in [3] stood at 4 µM. Moreover, the “MIC Pseudomonas aeruginosa” value in data set [4] stood at 2 µM. Further, in the data set with Salmonella typhimurium, the “MIC Salmonella typhimurium” value turned out to be 2 µM. The “MIC Staphylococcus aureus” value in data set [5] lay in the range of 4 to 8 µM. The “MIC Staphylococcus epidermidis” value in data set [6] was 16 µM. Also, the “MIC Bacillus subtilis” value in [7] was 4 µM. Besides, the “hemolytic activity (result in words)” value with human erythrocyte is “no hemolytic activity; also recorded: did not generate hemolytic phenomenon”. Further, the “% Hemolysis” value with human erythrocyte (peptide 3.13 μM), in the data set on human erythrocyte (peptide 6.25 μM), in the data set with human erythrocyte (peptide 12.5 μM), in the data set on human erythrocyte (peptide 25 μM), in the data set on human erythrocyte (peptide 50 μM) and with human erythrocyte (peptide 100 μM) was 0% in each case. In addition, the “% Hemolysis” value with human erythrocyte (peptide 200 μM) stood at 0%. The “cytotoxicity (result in words, FIG. 1)” value in the data set with HaCaT cell line (HaCaT cell line, 24 hours, MTT) is reported as “little cytotoxicity”. Moreover, the “cytotoxicity (result in words, FIG. 2)” value in the data set on NIH3T3 cell line (setting [8]) is “little cytotoxicity”.
For “FKRLKKLFKKIWNWK-NH2 [HPA3NT3, FKRLKKLFKKIWNWK-NH2, reference compound]”, the “MIC Escherichia coli” value in [1] was 4 µM. The “MIC Listeria monocytogenes” value in data set [2] worked out at 2 µM. Also, the “MIC Proteus vulgaris” value in data set [3] is 8 µM. For the same substance, the “MIC Pseudomonas aeruginosa” value in data set [4] amounted to 2 µM. Also, the “MIC Salmonella typhimurium” value with Salmonella typhimurium was determined as 2 µM. Also, in data set [5], the “MIC Staphylococcus aureus” value worked out at 2 µM. Further, the “MIC Staphylococcus epidermidis” value in data set [6] lay in the range of 2 to 4 µM. Also, the “MIC Bacillus subtilis” value in data set [7] was 2 µM. Also, the “% Hemolysis” value in the data set with human erythrocyte (peptide 3.13 μM) is recorded as 0%; with human erythrocyte (peptide 6.25 μM), 0%; with human erythrocyte (peptide 12.5 μM) it was 0%; with human erythrocyte (peptide 25 μM), 0%; in the data set with human erythrocyte (peptide 50 μM) it was 7.12%; in the data set on human erythrocyte (peptide 100 μM), 11.35%. Also, in the data set with human erythrocyte (peptide 200 μM), the “% Hemolysis” value stood at 37.23%. Besides, the “cytotoxicity (result in words, FIG. 1)” value in the data set with HaCaT cell line (HaCaT cell line, 24 hours, MTT) was “high cytotoxicity”. For the same substance, the “cytotoxicity (result in words, FIG. 2)” value in the data set on NIH3T3 cell line (setting [8]) is “high cytotoxicity”.

The values above are taken from patent US8410046B2, “Antibiotic peptide derived from ribosomal protein L1 of Helicobacter pylori and use thereof” (Industry-Academic Cooperation Foundation, Chosun University, priority 2008, dated 2013).
